The record followed here is publication PMC4511751, “Rapid Expansion of Phenylthiocarbamide Non-Tasters among Japanese Macaques” (PLoS ONE, 2015).

The target of experiment [1] is T1, MfTAS2R38TR-K (Macaca fuscata, UniProt F1T2T8).
T1 construct: gene tas2r38
The settings on record: truncated allele Mf-K; pH 7.4.

The target of experiment [2] is T2, MmTAS2R38WT-a (Macaca mulatta, UniProt F1T2U6).
T2 construct: gene tas2r38; full-length TAS2R38, N-terminal first 45 residues of rat ssr3 and C-terminal last 8 residues of bovine rhodopsin as tags, pEAK10, HEK293T, co-expressed with chimeric G-alpha16gust44
T2 sequence (F1T2U6 1-333): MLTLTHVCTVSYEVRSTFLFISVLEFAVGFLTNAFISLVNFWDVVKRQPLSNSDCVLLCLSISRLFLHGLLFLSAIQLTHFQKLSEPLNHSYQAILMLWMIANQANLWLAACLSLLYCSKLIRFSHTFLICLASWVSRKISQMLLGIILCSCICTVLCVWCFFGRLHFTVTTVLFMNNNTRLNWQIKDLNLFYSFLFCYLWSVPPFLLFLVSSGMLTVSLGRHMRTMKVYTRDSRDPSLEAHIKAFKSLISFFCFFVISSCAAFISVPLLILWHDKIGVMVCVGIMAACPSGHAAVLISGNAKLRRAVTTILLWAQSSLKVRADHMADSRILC
As to the kind of experiment: calcium imaging, fluo-4, FlexStation, HEK293T with G-alpha16gust44. In kind it is cell-based.

T1 sequence (F1T2T8 1-237): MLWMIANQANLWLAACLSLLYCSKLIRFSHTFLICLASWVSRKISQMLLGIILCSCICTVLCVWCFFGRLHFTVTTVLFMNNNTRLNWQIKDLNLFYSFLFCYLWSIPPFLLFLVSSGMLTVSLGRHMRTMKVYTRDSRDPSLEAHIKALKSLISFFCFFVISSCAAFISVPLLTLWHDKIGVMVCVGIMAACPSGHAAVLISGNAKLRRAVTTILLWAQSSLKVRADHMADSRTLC

In general, EC50 refers to the midpoint of the concentration-response curve. Turning to `NC(=S)Nc1ccccc1` [phenylthiocarbamide], the “calcium imaging, fluo-4, FlexStation, HEK293T with G-alpha16gust44” value in experiment [1] was “failed to respond to PTC”. Also, the 50% effective concentration (EC50) in experiment [2] amounted to 560 nM.
